The text below walks through data of patent publication US20050101783A1, “N-(heterocycle-methyl)alkylamine derivative, process for producing the same, and bactericide” (priority 2000, published 2005).

What all share (format): in vivo
One experiment relates to cucumber gray mold. The experiment in a line: Preventive effect test of cucumber gray mold (wettable powder sprayed on potted cucumber, preventive value). As to conditions: wettable powder suspended at 250 mg/l, sprayed on potted cucumber at 100 l/10 a; morbidity investigated 4th to 6th day after inoculation. The method, then: (Preventive Effect Test of Cucumber Gray Mold)
The wettable powders obtained by using each compound were diluted with water and were suspended at a predetermined concentration (250 mg/l) and the solution was sprayed over the first to second leaf stage-cucumber (variety: “Sagamihanpakufushinari”) cultivated by using a square plastic pot (size: 6.4 cm×6.4 cm) at a rate of 100 1/10 a.
After the sprayed leaves were air-dried, a paper disk where the solution of the spore of the gray mold suspended with water was impregnated was put on the aforementioned sprayed leaves, and the leaves were contracted in a glass greenhouse (temperature: 20 to 24° C. and relative humidity: 20 to 70 RH). The morbidity rate was investigated based on the following investigation standard on 4th to 6th day after the inoculation and the preventive value was calculated according to the following formula 2.

The next experiment concerns cucumber powdery mildew. Nature of the experiment: Preventive effect of cucumber powdery mildew (wettable powder sprayed on potted cucumber, preventive value). The note with it: wettable powder suspended at 100 mg/l, sprayed on potted cucumber at 100 l/10 a; morbidity investigated 9th to 14th day after inoculation. The method, then: (Preventive Effect of Cucumber Powdery Mildew)
The wettable powders obtained by using each compound were diluted with water and were suspended at a predetermined concentration (100 mg/l) and the solution was sprayed over the first to second leaf stage-cucumber (variety: “Sagamihanpakufushinari”) cultivated by using a square plastic pot (size: 6.4 cm×6.4 cm) at a rate of 100 1/10 a.
After the sprayed leaves were air-dried, the spore was inoculated over the aforementioned air-dried leaves from the contracted leaves with a brush, and the contraction was performed in a glass greenhouse (temperature: 20 to 24° C. and relative humidity: 20 to 70 RH). The morbidity rate was investigated based on the same investigation standard as that in the preventive effect test of the cucumber gray mold on 9th to 14th day after the inoculation, and the preventive value was calculated according to the aforementioned formula 2.

Experiment [1] concerns Erysiphe graminis f. sp tritici. The experiment in a line: Preventive effect test of wheat powdery mildew (wettable powder sprayed on potted wheat, preventive value). The note with it: wettable powder suspended at 250 mg/l, sprayed on potted wheat at 100 l/10 a; morbidity investigated 9th to 14th day after inoculation. The method, then:
(Preventive Effect Test of Erysiphe graminis f. sp […])
The wettable powders obtained by using each compound were diluted with water and were suspended at a predetermined concentration (250 mg/l) and the solution was sprayed over the first to second leaf stage-wheat (variety. Agriculture and Forestry No. 64) cultivated by using a square plastic pot (size: 6.4 cm×6.4 cm) at a rate of 100 1/10 a (are).
After the sprayed leaves were air-dried, the suspension of the spore of Erysiphe graminis f. sp tritici germ sampled from the contracted leaves were sprayed and inoculated over the sprayed leaf after air-dried, the leaves were kept at 20 to 24° C. under a high-humidity condition for 24 hours, then, the leaves were subjected to still standing in a greenhouse (temperature: 20 to 24° C. and relative humidity: 20 to 70 RH). The morbidity rate was investigated based on the following investigation standard on 9th to 14th day after the inoculation and the preventive value was calculated according to the following formula 1.

In the case of `CN(Cc1ccc(Cl)nc1)CC(C)(C)Cc1ccc(OCC(F)(F)C(F)(F)F)cc1` [Compound I-85], the “Preventive Value (%)” value (in the experiment with cucumber gray mold; in the experiment with cucumber powdery mildew; in experiment [1]) was 100% throughout.

On to `CCOCc1ccc(CC(C)(C)CN(C)Cc2ccc(Cl)nc2)cc1` [Compound I-89], for which the “Preventive Value (%)” value (in the experiment with cucumber gray mold; in the experiment on cucumber powdery mildew; in experiment [1]) was 100% throughout.

As for `Cc1ncc(CN(C)CC(C)(C)Cc2ccc(C(C)(C)C)cc2)cn1` [Compound I-21], the “Preventive Value (%)” value in the experiment with cucumber gray mold turned out to be 100%.

Consider `CC(Cc1ccc(Cl)cc1Cl)CN(C)Cc1ccc(Cl)nc1` (stereo not drawn) [Compound (a), 6-chloro-N-methyl-N-[2-methyl-3-(2,4-dichlorophenyl)propyl]-3-pyridylmethylamine, reference compound], for which the “Preventive Value (%)” value is listed as 80% in the experiment on cucumber gray mold, 70% in the experiment on cucumber powdery mildew and 60% in experiment [1].

Regarding `CN(Cc1ccc(Cl)nc1)CC(C)(C)Cc1cc(Cl)ccc1Cl` [Compound I-32], in the experiment on cucumber gray mold, the “Preventive Value (%)” value amounted to 100%.

For the compound `CN(Cc1ccc(Cl)nc1)CC(C)(C)Cc1ccc(F)c(Oc2ccccc2)c1` [Compound I-38], the “Preventive Value (%)” value in the experiment with cucumber gray mold was determined as 100%.

Regarding `CN(Cc1ccc(Cl)nc1)CC(C)(C)Cc1ccc2c(c1)OC(F)(F)O2` [Compound I-49], the “Preventive Value (%)” value (with cucumber powdery mildew; in experiment [1]) was 100% in each case.

Turning to `CC(CCc1ccc(C(C)(C)C)cc1)CN(C)Cc1ccc(Cl)nc1` (stereo not drawn) [Compound I-50], the “Preventive Value (%)” value in the experiment with cucumber gray mold is reported as 100%.

In the case of `CN(Cc1ccc(Cl)nc1)CC(C)(C)Cc1ccc(OCC(F)(F)C(F)F)cc1` [Compound I-84], the “Preventive Value (%)” value (in the experiment with cucumber gray mold; with cucumber powdery mildew; in experiment [1]) was 100% in each case.

In the case of `CC(CCC1CCC(C(C)(C)C)CC1)CN(C)Cc1ccc(Cl)nc1` (stereo not drawn) [Compound I-64], the “Preventive Value (%)” value in the experiment with cucumber gray mold stood at 100%.

For `CN(Cc1cccnc1)CC(C)(C)Cc1ccc(C(C)(C)C)cc1` [Compound I-16], the “Preventive Value (%)” value in the experiment with cucumber gray mold is on record as 100%.

As for `CN(Cc1ccc(Cl)nc1)CC(C)(C)CCc1cccc(Oc2ccccc2)c1` [Compound I-55], in the experiment on cucumber powdery mildew, the “Preventive Value (%)” value is reported as 100%.

`CC(CCCC1CCC(C(C)(C)C)CC1)CN(C)Cc1ccc(Cl)nc1` (stereo not drawn) [Compound I-66]: the “Preventive Value (%)” value in the experiment on cucumber gray mold stood at 100%.

On to `CCC(=NOC)c1ccc(CC(C)(C)CN(C)Cc2ccc(Cl)nc2)cc1` [Compound I-121], for which the “Preventive Value (%)” value (in the experiment with cucumber gray mold; in the experiment on cucumber powdery mildew; in experiment [1]) was 100% in each case.

In the case of `CN(Cc1ccc(Cl)nc1)CC(C)(C)Cc1cccc(OC(F)(F)F)c1` [Compound I-46], the “Preventive Value (%)” value in the experiment on cucumber gray mold was determined as 100%.

As to `CN(Cc1ccc(Cl)nc1)CC(C)(C)Cc1cccc(Cl)c1` [Compound I-29], in the experiment on cucumber gray mold, the “Preventive Value (%)” value is on record as 100%.

As for `CN(Cc1ccc(F)nc1)CC(C)(C)Cc1ccc(OC(F)(F)F)cc1` [Compound I-140], the “Preventive Value (%)” value (in the experiment on cucumber gray mold; in the experiment with cucumber powdery mildew; in experiment [1]) was 100% each time.

Take `CCON=C(C)c1ccc(CC(C)(C)CN(C)Cc2ccc(Cl)nc2)cc1` [Compound I-117]: the “Preventive Value (%)” value (in the experiment on cucumber gray mold; with cucumber powdery mildew; in experiment [1]) was 100% throughout.

With `CN(Cc1ccc(Cl)nc1)CC(C)(C)Cc1ccc(Oc2ccccc2)cc1` [Compound I-35], the “Preventive Value (%)” value in the experiment with cucumber gray mold came out at 100%.

Regarding `CN(Cc1ccc(Cl)nc1)CC(C)(C)CC1CCC(C(C)(C)C)CC1` (stereo not drawn) [Compound I-63], in the experiment with cucumber gray mold, the “Preventive Value (%)” value is 100%.

Turning to `CN(Cc1ccc(C(F)(F)F)nc1)CC(C)(C)Cc1ccc(OC(F)(F)F)cc1` [Compound I-141], the “Preventive Value (%)” value (in the experiment on cucumber gray mold; in the experiment with cucumber powdery mildew; in experiment [1]) was 100% throughout.

For `CON=C(C)c1ccc(CC(C)(C)CN(C)Cc2ccc(Cl)nc2)cc1` [Compound I-116], the “Preventive Value (%)” value (with cucumber gray mold; with cucumber powdery mildew; in experiment [1]) was 100% each time.

On to `CN(Cc1ccc(Cl)nc1)CC(C)(C)Cc1ccc(Cl)cc1` [Compound I-28], for which the “Preventive Value (%)” value (with cucumber gray mold; in experiment [1]) was 100% in each case.

`COC(C)c1ccc(CC(C)(C)CN(C)Cc2ccc(Cl)nc2)cc1` (stereo not drawn) [Compound I-95]: the “Preventive Value (%)” value (with cucumber gray mold; in the experiment on cucumber powdery mildew; in experiment [1]) was 100% throughout.

In the case of `CC(C)Oc1cccc(CC(C)(C)CN(C)Cc2ccc(Cl)nc2)c1` [Compound I-27], the “Preventive Value (%)” value in experiment [1] came to 100%.

As to `CN(Cc1ccc(Cl)nc1)CC(C)(C)Cc1ccc(Cl)cc1Cl` [Compound I-31], in the experiment on cucumber gray mold, the “Preventive Value (%)” value is 100%.

As to `CN(Cc1ccc(Cl)nc1)CC(C)(C)Cc1cc(Cl)cc(Cl)c1` [Compound I-34], the “Preventive Value (%)” value with cucumber gray mold is 100%.

Consider `CN(Cc1ccc(Cl)nc1)CC(C)(C)Cc1ccc(OC(F)(F)C(F)F)cc1` [Compound I-83], for which the “Preventive Value (%)” value (with cucumber gray mold; with cucumber powdery mildew; in experiment [1]) was 100% in each case.

Regarding `CN(Cc1ccc(Cl)nc1)CC(C)(C)Cc1ccc(Cl)c(Cl)c1` [Compound I-33], in the experiment with cucumber gray mold, the “Preventive Value (%)” value was 100%.

For `CN(Cc1ccc(Br)nc1)CC(C)(C)Cc1ccc(OC(F)(F)F)cc1` [Compound I-139], the “Preventive Value (%)” value (with cucumber gray mold; with cucumber powdery mildew; in experiment [1]) was 100% each time.

Consider `Cc1ccc(Oc2cccc(CC(C)(C)CN(C)Cc3ccc(Cl)nc3)c2)cc1` [Compound I-39], for which the “Preventive Value (%)” value with cucumber gray mold is listed as 100%.

For the compound `CC(CC1CCC(C(C)(C)C)CC1)CN(C)Cc1ccc(Cl)nc1` (stereo not drawn) [Compound I-62, N-[3-(4-t-butylcyclohexyl)-2-methylpropyl]-6-chloro-N-methyl-3-pyridylmethylamine], the “Preventive Value (%)” value (with cucumber gray mold; in experiment [1]) was 100% throughout.

As to `CN(Cc1ccc(Cl)nc1)CC(C)(C)Cc1ccc(OCC(F)(F)F)cc1` [Compound I-82], the “Preventive Value (%)” value (in the experiment on cucumber gray mold; with cucumber powdery mildew; in experiment [1]) was 100% throughout.

As for `CN(Cc1ccc(Cl)nc1)CC(C)(C)CCc1ccc(C(C)(C)C)cc1` [Compound I-51], in the experiment with cucumber gray mold, the “Preventive Value (%)” value is given as 100%.

Take `CCOC(C)c1ccc(CC(C)(C)CN(C)Cc2ccc(Cl)nc2)cc1` (stereo not drawn) [Compound I-96]: the “Preventive Value (%)” value (with cucumber gray mold; in the experiment with cucumber powdery mildew; in experiment [1]) was 100% each time.

Turning to `COCc1ccc(CC(C)(C)CN(C)Cc2ccc(Cl)nc2)cc1` [Compound I-88], the “Preventive Value (%)” value (with cucumber gray mold; in the experiment with cucumber powdery mildew; in experiment [1]) was 100% in each case.

With `CC(CCc1ccc(Cl)cc1Cl)CN(C)Cc1ccc(Cl)nc1` (stereo not drawn) [Compound I-56], the “Preventive Value (%)” value (in the experiment on cucumber powdery mildew; in experiment [1]) was 100% each time.

`CN(Cc1ccc(F)nc1)CC(C)(C)Cc1ccc(C(C)(C)C)cc1` [Compound I-19]: the “Preventive Value (%)” value (in the experiment on cucumber gray mold; in the experiment with cucumber powdery mildew; in experiment [1]) was 100% in each case.

For the compound `CN(Cc1ccc(Cl)nc1)CC(C)(C)Cc1cccc(Oc2ccccc2)c1` [Compound I-36], in the experiment on cucumber gray mold, the “Preventive Value (%)” value came out at 100%.

Turning to `CN(Cc1ccc(Cl)nc1)CC(C)(C)Cc1ccc(C(C)(C)C)cc1` [Compound I-25], the “Preventive Value (%)” value in the experiment on cucumber gray mold is listed as 100%.

Regarding `CC(CCc1cccc(Oc2ccccc2)c1)CN(C)Cc1ccc(Cl)nc1` (stereo not drawn) [Compound I-54], the “Preventive Value (%)” value with cucumber gray mold came out at 100%.

In the case of `CN(Cc1cccnc1Cl)CC(C)(C)Cc1ccc(C(C)(C)C)cc1` [Compound I-20], the “Preventive Value (%)” value with cucumber gray mold came out at 100%.

As for `CN(Cc1ccc(Cl)nc1)CC(C)(C)Cc1cccc(OC(F)(F)C(F)F)c1` [Compound I-48], in the experiment with cucumber gray mold, the “Preventive Value (%)” value was 100%.

Turning to `CC(CCCc1ccc(C(C)(C)C)cc1)CN(C)Cc1ccc(Cl)nc1` (stereo not drawn) [Compound I-52], in the experiment on cucumber gray mold, the “Preventive Value (%)” value was found to be 100%.

With `CN(Cc1ccc(Cl)nc1)CC(C)(C)Cc1cccc(Oc2cccc(C(F)(F)F)c2)c1` [Compound I-40], in the experiment on cucumber gray mold, the “Preventive Value (%)” value came out at 100%.
